Measured values: US20230077362A1 (CORTEVA AGRISCIENCE LLC, priority 2019, published 2023)

Tests used:
[1] = test system: Beet Armyworm (Spodoptera exigua) ("BAW"), second instar larvae; assay: Bioassay on beet armyworm (BAW), 128-well diet tray assay; format: in vivo; settings: for pest or weed control at 50 µg/cm2: Spodoptera exigua, read-out: BAW rating; for BAW rating: Table ABC, species BAW, C = not tested, D = no activity noticed
Method in brief: (§1)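 Covered trays were held at 25° C. under a 14:10 light-dark cycle for five to seven days. Percent mortality was then scored in each well, and activity across eight wells was averaged.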

[2] = test system: Cabbage Looper (Trichoplusia ni) ("CL"), second instar larvae; assay: Bioassay on cabbage looper (CL), 128-well diet tray assay; format: in vivo; settings: for pest or weed control at 50 µg/cm2: Trichoplusia ni, read-out: CL rating; for CL rating: Table ABC, species CL, C = not tested, D = no activity noticed
Method in brief: as §1

Work on `COC(c1ccc(C)cc1N1C(=O)CS/C1=N\C(=O)Nc1ccc(-c2cn(-c3ccc(S(F)(F)(F)(F)F)cc3)cn2)cc1C)C(F)(F)F` (stereo not shown) [Compound J617, (Z)-1-(3-(5-Methyl-2-(2,2,2-trifluoro-1-methoxyethyl)phenyl)-4-oxothiazolidin-2-ylidene)-3-(2-methyl-4-(1-(4-(pentafluoro-λ^6-sulfaneyl)phenyl)-1H-imidazol-4-yl)phenyl)urea] yielded a pest or weed control at 50 µg/cm2 [1] of 50 to 100% and a pest or weed control at 50 µg/cm2 [2] of 50 to 100%.
`Cc1cc(-c2cn(-c3ccc(S(F)(F)(F)(F)F)cc3)cn2)ccc1NC(=O)/N=C1\SCC(=O)N1c1cc(N(C)C)ccc1C(C)C` [Compound J618, (Z)-1-(3-(5-(Dimethylamino)-2-isopropylphenyl)-4-oxothiazolidin-2-ylidene)-3-(2-methyl-4-(1-(4-(pentafluoro-λ^6-sulfaneyl)phenyl)-1H-imidazol-4-yl)phenyl)urea] was tested, and the pest or weed control at 50 µg/cm2 [1] was 50 to 100% and the pest or weed control at 50 µg/cm2 [2] was 50 to 100%.
Work on `Cc1cc(-c2cn(-c3ccc(S(F)(F)(F)(F)F)cc3)cn2)ccc1NC(=O)/N=C1\SCC(=O)N1c1cc(N(C)C)c(F)cc1C(C)C` [Compound J619, (Z)-1-(3-(5-(Dimethylamino)-4-fluoro-2-isopropylphenyl)-4-oxothiazolidin-2-ylidene)-3-(2-methyl-4-(1-(4-(pentafluoro-λ^6-sulfaneyl)phenyl)-1H-imidazol-4-yl)phenyl)urea] yielded a pest or weed control at 50 µg/cm2 [1] of 50 to 100% and a pest or weed control at 50 µg/cm2 [2] of 50 to 100%.
For `CCOc1ccc(-n2cnc(-c3ccc(NC(=O)/N=C4\SCC(=O)N4c4cc(C)c(C)cc4COCC(F)(F)F)c(F)c3)n2)cc1` [Compound J620], the BAW rating [1] was “A (50-100)” and the CL rating [2] was “A (50-100)”.
Compound `Cc1ccc(COCc2ccc(F)cc2C(F)(F)F)c(N2C(=O)CS/C2=N\C(=O)Nc2ccc(-c3ncn(-c4ccc(OC(F)(F)F)cc4)n3)cc2F)c1` [Compound J621, (Z)-1-(3-(2-(((4-Fluoro-2-(trifluoromethyl)benzyl)oxy)methyl)-5-methylphenyl)-4-oxothiazolidin-2-ylidene)-3-(2-fluoro-4-(1-(4-(trifluoromethoxy)phenyl)-1H-1,2,4-triazol-3-yl)phenyl)urea] has a pest or weed control at 50 µg/cm2 [1] of 50 to 100% and a pest or weed control at 50 µg/cm2 [2] of 50 to 100%.
With `Cc1ccc(COCc2c(F)c(F)c(F)c(F)c2F)c(N2C(=O)CS/C2=N\C(=O)Nc2ccc(-c3ncn(-c4ccc(OC(F)(F)F)cc4)n3)cc2F)c1` [Compound J622, (Z)-1-(2-Fluoro-4-(1-(4-(trifluoromethoxy)phenyl)-1H-1,2,4-triazol-3-yl)phenyl)-3-(3-(5-methyl-2-(((perfluorophenyl)methoxy)methyl)phenyl)-4-oxothiazolidin-2-ylidene)urea] the pest or weed control at 50 µg/cm2 [1] was 50 to 100% and the pest or weed control at 50 µg/cm2 [2] was 50 to 100%.
`CCOc1ccc(-n2cnc(-c3ccc(NC(=O)/N=C4\SCC(=O)N4c4cc(C)ccc4COCC(F)(F)F)c(F)c3)n2)cc1` [Compound J625] was tested, and the BAW rating [1] was “A (50-100)” and the CL rating [2] was “A (50-100)”.
`Cc1ccc(COCC(F)(F)F)c(N2C(=O)CS/C2=N\C(=O)Nc2ccc(-c3ncn(-c4ccc(S(F)(F)(F)(F)F)cc4)n3)cc2C(F)(F)F)c1` [Compound J626, (Z)-1-(3-(5-Methyl-2-((2,2,2-trifluoroethoxy)methyl)phenyl)-4-oxothiazolidin-2-ylidene)-3-(4-(1-(4-(pentafluoro-λ^6-sulfaneyl)phenyl)-1H-1,2,4-triazol-3-yl)-2-(trifluoromethyl)phenyl)urea] was tested, and the pest or weed control at 50 µg/cm2 [1] was 50 to 100% and the pest or weed control at 50 µg/cm2 [2] was 50 to 100%.
In the case of `CCOCc1ccc(C)cc1N1C(=O)CS/C1=N\C(=O)Nc1ccc(-c2ncn(-c3ccc(S(F)(F)(F)(F)F)cc3)n2)cc1C(F)(F)F` [Compound J627, (Z)-1-(3-(2-(Ethoxymethyl)-5-methylphenyl)-4-oxothiazolidin-2-ylidene)-3-(4-(1-(4-(pentafluoro-λ^6-sulfaneyl)phenyl)-1H-1,2,4-triazol-3-yl)-2-(trifluoromethyl)phenyl)urea], the pest or weed control at 50 µg/cm2 [1] is reported as 50 to 100% and the pest or weed control at 50 µg/cm2 [2] is reported as 50 to 100%.
`CCCc1ccc(C)cc1N1C(=O)CS/C1=N\C(=O)Nc1ccc(-c2ncn(-c3ccc(S(F)(F)(F)(F)F)cc3)n2)cc1C(F)(F)F` [Compound J628, (Z)-1-(3-(5-Methyl-2-propylphenyl)-4-oxothiazolidin-2-ylidene)-3-(4-(1-(4-(pentafluoro-λ^6-sulfaneyl)phenyl)-1H-1,2,4-triazol-3-yl)-2-(trifluoromethyl)phenyl)urea] was tested, and the pest or weed control at 50 µg/cm2 [1] was 50 to 100% and the pest or weed control at 50 µg/cm2 [2] was 50 to 100%.
`Cc1ccc(OCCC(F)(F)F)c(N2C(=O)CS/C2=N\C(=O)Nc2ccc(-c3ncn(-c4ccc(S(F)(F)(F)(F)F)cc4)n3)cc2C(F)(F)F)c1` [Compound J629, (Z)-1-(3-(5-Methyl-2-(3,3,3-trifluoropropoxy)phenyl)-4-oxothiazolidin-2-ylidene)-3-(4-(1-(4-(pentafluoro-λ^6-sulfaneyl)phenyl)-1H-1,2,4-triazol-3-yl)-2-(trifluoromethyl)phenyl)urea] gave a pest or weed control at 50 µg/cm2 [1] of 50 to 100% and a pest or weed control at 50 µg/cm2 [2] of 50 to 100%.
`CC(C)c1ccc(N(C)C)cc1N1C(=O)CS/C1=N\C(=O)Nc1ccc(-c2ncn(-c3ccc(S(F)(F)(F)(F)F)cc3)n2)cc1C(F)(F)F` [Compound J630, (Z)-1-(3-(5-(Dimethylamino)-2-isopropylphenyl)-4-oxothiazolidin-2-ylidene)-3-(4-(1-(4-(pentafluoro-λ^6-sulfaneyl)phenyl)-1H-1,2,4-triazol-3-yl)-2-(trifluoromethyl)phenyl)urea] showed a pest or weed control at 50 µg/cm2 [1] of 50 to 100% and a pest or weed control at 50 µg/cm2 [2] of 50 to 100%.
`CCOC(C)c1ccc(C)cc1N1C(=O)CS/C1=N\C(=O)Nc1ccc(-c2ncn(-c3ccc(S(F)(F)(F)(F)F)cc3)n2)cc1C(F)(F)F` (stereo not shown) [Compound J631, (Z)-1-(3-(2-(1-Ethoxyethyl)-5-methylphenyl)-4-oxothiazolidin-2-ylidene)-3-(4-(1-(4-(pentafluoro-λ^6-sulfaneyl)phenyl)-1H-1,2,4-triazol-3-yl)-2-(trifluoromethyl)phenyl)urea] showed a pest or weed control at 50 µg/cm2 [1] of 50 to 100% and a pest or weed control at 50 µg/cm2 [2] of 50 to 100%.
Compound `Cc1cc(COCC(F)(F)F)c(N2C(=O)CS/C2=N\C(=O)Nc2ccc(-c3ncn(-c4ccc(S(F)(F)(F)(F)F)cc4)n3)cc2C(F)(F)F)cc1C` [Compound J632, (Z)-1-(3-(4,5-Dimethyl-2-((2,2,2-trifluoroethoxy)methyl)phenyl)-4-oxothiazolidin-2-ylidene)-3-(4-(1-(4-(pentafluoro-λ^6-sulfaneyl)phenyl)-1H-1,2,4-triazol-3-yl)-2-(trifluoromethyl)phenyl)urea] has a pest or weed control at 50 µg/cm2 [1] of 50 to 100% and a pest or weed control at 50 µg/cm2 [2] of 50 to 100%.
Compound `COc1cc(COCC(F)(F)F)c(N2C(=O)CS/C2=N\C(=O)Nc2ccc(-c3ncn(-c4ccc(S(F)(F)(F)(F)F)cc4)n3)cc2C(F)(F)F)cc1OC` [Compound J633, (Z)-1-(3-(4,5-Dimethoxy-2-((2,2,2-trifluoroethoxy)methyl)phenyl)-4-oxothiazolidin-2-ylidene)-3-(4-(1-(4-(pentafluoro-λ^6-sulfaneyl)phenyl)-1H-1,2,4-triazol-3-yl)-2-(trifluoromethyl)phenyl)urea] has a pest or weed control at 50 µg/cm2 [1] of 50 to 100% and a pest or weed control at 50 µg/cm2 [2] of 50 to 100%.
With `CCc1ccc(COCC(F)(F)F)c(N2C(=O)CS/C2=N\C(=O)Nc2ccc(-c3ncn(-c4ccc(OC(F)(F)F)cc4)n3)cc2F)c1` [Compound J634] the BAW rating [1] was “A (50-100)” and the CL rating [2] was “A (50-100)”.
`Cc1ccc(COCc2ccccc2F)c(N2C(=O)CS/C2=N\C(=O)Nc2ccc(-c3ncn(-c4ccc(OC(F)(F)F)cc4)n3)cc2F)c1` [Compound J635, (Z)-1-(2-Fluoro-4-(1-(4-(trifluoromethoxy)phenyl)-1H-1,2,4-triazol-3-yl)phenyl)-3-(3-(2-(((2-fluorobenzyl)oxy)methyl)-5-methylphenyl)-4-oxothiazolidin-2-ylidene)urea] was tested, and the pest or weed control at 50 µg/cm2 [1] was 50 to 100% and the pest or weed control at 50 µg/cm2 [2] was 50 to 100%.
`O=C(/N=C1\SCC(=O)N1c1ccc(Cl)cc1COCc1ccccc1)Nc1ccc(-c2ncn(-c3ccc(OC(F)(F)F)cc3)n2)cc1F` [Compound J636, (Z)-1-(3-(2-((Benzyloxy)methyl)-4-chlorophenyl)-4-oxothiazolidin-2-ylidene)-3-(2-fluoro-4-(1-(4-(trifluoromethoxy)phenyl)-1H-1,2,4-triazol-3-yl)phenyl)urea] showed a pest or weed control at 50 µg/cm2 [1] of 50 to 100% and a pest or weed control at 50 µg/cm2 [2] of 0 to 50%.
Compound `Cc1ccc(COCc2nc3ccccc3s2)c(N2C(=O)CS/C2=N\C(=O)Nc2ccc(-c3ncn(-c4ccc(OC(F)(F)F)cc4)n3)cc2F)c1` [Compound J640, (Z)-1-(3-(2-((Benzo[d]thiazol-2-ylmethoxy)methyl)-5-methylphenyl)-4-oxothiazolidin-2-ylidene)-3-(2-fluoro-4-(1-(4-(trifluoromethoxy)phenyl)-1H-1,2,4-triazol-3-yl)phenyl)urea] has a pest or weed control at 50 µg/cm2 [1] of 50 to 100% and a pest or weed control at 50 µg/cm2 [2] of 50 to 100%.
For `CCc1ccc(COCC(F)(F)F)c(N2C(=O)CS/C2=N\C(=O)Nc2ccc(-c3ncn(-c4ccc(OC(F)(F)F)cc4)n3)cc2C)c1` [Compound J641], the BAW rating [1] was “A (50-100)” and the CL rating [2] was “A (50-100)”.
For `CCc1ccc(COCC(F)(F)F)c(N2C(=O)CS/C2=N\C(=O)Nc2ccc(-c3ncn(-c4ccc(C(F)(F)F)cc4)n3)cc2F)c1` [Compound J642], the BAW rating [1] was “A (50-100)” and the CL rating [2] was “A (50-100)”.
In the case of `Cc1ccc(C(C)C)c(N2C(=O)CS/C2=N\C(=O)Nc2ccc(-c3cn(-c4ccc(S(=O)(=O)C(F)(F)F)cc4)cn3)cc2F)c1` [Compound J651, (Z)-1-(2-Fluoro-4-(1-(4-((trifluoromethyl)sulfonyl)phenyl)-1H-imidazol-4-yl)phenyl)-3-(3-(2-isopropyl-5-methylphenyl)-4-oxothiazolidin-2-ylidene)urea], the pest or weed control at 50 µg/cm2 [1] is reported as 50 to 100% and the pest or weed control at 50 µg/cm2 [2] is reported as 50 to 100%.
With `Cc1cc(COCC(F)(F)F)c(N2C(=O)CS/C2=N\C(=O)Nc2ccc(-c3ncn(-c4ccc(C(F)(F)F)cc4)n3)cc2F)cc1C` [Compound J660] the BAW rating [1] was “A (50-100)” and the CL rating [2] was “A (50-100)”.
